Test results from publication PMC7397269, “Synthesis and Evaluation of New Coumarin Derivatives as Antioxidant, Antimicrobial, and Anti-Inflammatory Agents” (Molecules, 2020).
≈ marks a conversion by molar mass, not a printed value. Like-named read-outs stand apart in the source and are kept apart here.

Tests used:
[1] = DPPH antioxidant assay (radical scavenging); format: biochemical; conditions: mean ± SD (n = 3)
Experimental: The antioxidant effects of the synthesised compounds were assessed using the 2,2-diphenyl-1-picrylhydrazyl (DPPH) antioxidant assay. Table 1 summarises the antioxidant effects of the test samples and ascorbic acid except for compound 5b because it was produced in poor yield.
The radical scavenging activity of the synthesised compounds was measured using the DPPH microplate-based method. The absorbance was measured using a microplate/cuvette reader (Spectramax M5, Molecular Devices, San Jose, CA, USA). Reference standard ascorbic acid was utilised as the positive control for this assay. Test samples were prepared at a starting concentration of 200 μg/mL after mixing with 100 μL of 0.2 mM DPPH methanolic solution. […] Samples were incubated with DPPH in the dark for 30 min at room temperature (25 °C). The methanolic DPPH solution was prepared daily and stored in a flask covered with aluminium foil. DPPH radicals have an absorption maximum (λmax) at 515 nm, at which the absorbance values were measured and converted into a percentage of antioxidant activity.
The methanolic DPPH solution without antioxidants was used as a control, and samples in methanol alone served as a background control. IC50 was determined using GraphPad Prism 7 (GraphPad Software Inc., San Diego, CA, USA). The percent inhibition was calculated using the following Equation (1):(1) % Inhibition=100−Sample Absorbance −Sample background Absorbance/DPPH only Absorbance×100
The assay was carried out in triplicate and performed as much as possible in an area protected against light. The data points are presented as the mean ± standard deviation (SD, n = 3).

[2] = tested on: Staphylococcus aureus ATCC 29213; test: Agar well diffusion, S. aureus; format: cell-based; conditions: ATCC29213, 100 μL of 10 mg/mL in DMSO, read-out: diameter of inhibition zone, SA
From the text: (§1) The new molecules were individually tested for their antimicrobial activity in vitro against standard bacteria strains from the American Type Culture Collection (ATCC), namely, Staphylococcus aureus ATCC 29213, Bacillus subtilis ATCC 6633, Bacillus megaterium ATCC 9885 (Gram-positive), Escherichia coli ATCC 2592, and Pseudomonas aeruginosa ATCC 27,953 (Gram-negative). The compounds were also microbiologically tested against locally isolated Saccharomyces cerevisiae (yeast) and the standard Agricultural Research Service Culture Collection (NRRL) strain of the yeast-like pathogenic fungus Candida albicans NRRL Y-477. Primary screening was conducted using the agar well diffusion method using nutrient agar (NA) medium and Sabourand dextrose agar (SDA) medium for the tested pathological bacteria and yeast, respectively. […].
(§2) Antimicrobial tests were conducted via the agar well diffusion method using 100 μL of suspension containing 1 × 10^8 CFU/mL pathological tested bacteria and 1 × 10^6 CFU/mL yeast spread on NA and SDA, respectively. After the media cooled and solidified, wells (10 mm in diameter) were made in the solidified agar and loaded with 100 μL of the tested compound solution prepared by dissolving 10 mg of the chemical compound in 1 mL dimethyl sulfoxide (DMSO). The inoculated plates were then incubated for 24 h at 37 °C for bacteria and yeast growth. DMSO served as negative control. Ciprofloxacin (10 mg/mL) and ketoconazole (10 mg/mL) were used as standards for antibacterial and antifungal activity, respectively. After incubation, antimicrobial activity was evaluated by measuring the zone of inhibition against the test organisms and compared with that of the standard. Antimicrobial activities were expressed as the diameter of the inhibition zone (IZ) in mm. The experiment was carried out in triplicate and the average zone of inhibition was calculated.

[3] = tested on: Bacillus subtilis ATCC 6633; test: Agar well diffusion, B. subtilis; format: cell-based; conditions: ATCC6633, 100 μL of 10 mg/mL in DMSO, read-out: diameter of inhibition zone, BS
From the text: as §1, §2

[4] = tested on: Bacillus megaterium ATCC 9885; test: Agar well diffusion, B. megaterium; format: cell-based; conditions: Priestia megaterium, ATCC9885, 100 μL of 10 mg/mL in DMSO, read-out: diameter of inhibition zone, BM
From the text: as §1, §2

[5] = tested on: Escherichia coli ATCC 2592; test: Agar well diffusion, E. coli; format: cell-based; conditions: ATCC2592, 100 μL of 10 mg/mL in DMSO, read-out: diameter of inhibition zone, EC
From the text: as §1, §2

[6] = tested on: Pseudomonas aeruginosa ATCC 27,953; test: Agar well diffusion, P. aeruginosa; format: cell-based; conditions: ATCC27, 100 μL of 10 mg/mL in DMSO, read-out: diameter of inhibition zone, PA
From the text: as §1, §2

[7] = tested on: Saccharomyces cerevisiae local isolate; test: Agar well diffusion, S. cerevisiae; format: cell-based; conditions: read-out: diameter of inhibition zone, SC
From the text: as §1, §2

[8] = tested on: Candida albicans NRRL Y-477; test: Agar well diffusion, C. albicans; format: cell-based; conditions: NRRLY477, 100 μL of 10 mg/mL in DMSO, read-out: diameter of inhibition zone, CA
From the text: as §1, §2

[9] = tested on: Saccharomyces cerevisiae local isolate; test: MIC, two-fold serial dilution, S. cerevisiae; format: cell-based; conditions: read-out: Minimum inhibitory concentration, SC
From the text: as §1
(§3) The bacteriostatic activity of the active compounds (having IZ > 16 mm) was then evaluated using the two-fold serial dilution technique. Two-fold serial dilutions of the tested compounds solutions were prepared using the proper nutrient broth to reach final concentrations of 1000, 500, 250, and 125 μg/mL. The tubes were then inoculated with the test microorganisms grown in their suitable broth at 37 °C for 24 h (1 × 10^8 CFU/mL for bacteria and 1 × 10^6 CFU/mL of yeast), 0.1 mL of the above inoculum was administered per 5 mL, and the tubes were incubated at 37 °C for 24 h. The lowest concentration showing no growth was taken as the MIC.

[10] = tested on: Candida albicans NRRL Y-477; test: MIC, two-fold serial dilution, C. albicans; format: cell-based; conditions: NRRLY477, read-out: Minimum inhibitory concentration, CA
From the text: as §1, §3

trypsin = test: Proteinase-inhibitory activity; format: biochemical; conditions: 250 µg/mL; mean ± SD (n = 3)
Experimental: The newly synthesised compounds were individually tested for their in vitro anti-inflammatory activity against proteinase enzyme. […] This test was performed at the Pharmacology Department, Medical Research Division, National Research Centre, Cairo, Egypt. Furthermore, compounds 2–8 were evaluated for their COX1/COX2 inhibitory activities.
The test was performed according to El-Serwy et al. with minor modifications. The reaction mixture (2 mL) contained 0.06 mg trypsin, 20 mM Tris HCl buffer (pH 7.4), and 1 mL test sample (250 µg/mL for each compound). After incubating for 5 min, 1 mL of 0.8% (w/v) casein was added. The mixture was incubated for an additional 20 min. The reaction was arrested by adding 1 mL of 10% perchloric acid. The cloudy suspension was centrifuged, and the absorbance of the supernatant was read at 280 nm. Reference standard aspirin was used as the positive control. The experiment was performed in triplicate. The percent inhibition of protein denaturation was calculated using the following Equation (2):(2) % Inhibition=100−A control −A test/A control×100 where Acontrol and Atest represent the absorbance of the control reaction without and with the sample, respectively.

COX-1 = target: T1, COX-1 (Homo sapiens, UniProt P23219); test: COX-1 inhibition, Cayman assay kit; format: biochemical; conditions: mean of two determinations
T1 construct: purchased Cayman Chemical 701070
T1 sequence (P23219 24-599): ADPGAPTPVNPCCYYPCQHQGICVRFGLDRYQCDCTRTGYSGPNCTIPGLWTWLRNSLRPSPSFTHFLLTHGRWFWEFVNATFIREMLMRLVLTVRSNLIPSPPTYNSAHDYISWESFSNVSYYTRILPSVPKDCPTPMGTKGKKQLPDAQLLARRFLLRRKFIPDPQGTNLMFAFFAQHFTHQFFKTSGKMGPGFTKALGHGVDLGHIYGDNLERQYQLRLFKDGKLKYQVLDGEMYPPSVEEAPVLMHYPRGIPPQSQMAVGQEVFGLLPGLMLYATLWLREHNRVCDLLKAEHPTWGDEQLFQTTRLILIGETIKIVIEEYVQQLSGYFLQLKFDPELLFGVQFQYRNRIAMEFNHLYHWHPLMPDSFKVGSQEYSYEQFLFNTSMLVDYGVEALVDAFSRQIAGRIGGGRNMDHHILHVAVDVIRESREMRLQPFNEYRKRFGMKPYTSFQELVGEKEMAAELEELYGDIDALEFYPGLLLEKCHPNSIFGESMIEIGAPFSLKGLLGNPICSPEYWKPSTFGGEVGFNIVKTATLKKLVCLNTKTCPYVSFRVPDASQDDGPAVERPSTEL

COX-2 = target: T2, COX-2 (Homo sapiens, UniProt P35354); test: COX-2 inhibition, Cayman assay kit; format: biochemical; conditions: for IC50: mean of two determinations; for SI, selectivity index (COX-1/COX-2): ratio of COX-1/COX-2 IC50
T2 construct: purchased Cayman Chemical 701080
T2 sequence (P35354 18-604): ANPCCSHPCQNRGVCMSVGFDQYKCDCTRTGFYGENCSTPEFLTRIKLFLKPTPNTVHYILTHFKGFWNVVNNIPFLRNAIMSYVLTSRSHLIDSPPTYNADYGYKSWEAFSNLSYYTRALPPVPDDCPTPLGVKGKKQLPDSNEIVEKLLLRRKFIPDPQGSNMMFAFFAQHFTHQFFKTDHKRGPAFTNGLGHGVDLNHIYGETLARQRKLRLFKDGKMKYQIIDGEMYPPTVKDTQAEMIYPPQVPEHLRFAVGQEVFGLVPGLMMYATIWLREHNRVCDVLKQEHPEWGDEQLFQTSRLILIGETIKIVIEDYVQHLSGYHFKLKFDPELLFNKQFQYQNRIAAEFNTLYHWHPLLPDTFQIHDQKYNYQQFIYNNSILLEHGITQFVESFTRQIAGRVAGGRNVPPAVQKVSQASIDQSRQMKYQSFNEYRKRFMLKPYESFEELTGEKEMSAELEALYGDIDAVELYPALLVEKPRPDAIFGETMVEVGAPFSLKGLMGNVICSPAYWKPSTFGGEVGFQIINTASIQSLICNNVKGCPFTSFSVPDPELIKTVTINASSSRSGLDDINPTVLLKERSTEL

[11] = tested on: Staphylococcus aureus ATCC 29213; test: MIC, two-fold serial dilution, S. aureus; format: cell-based; conditions: ATCC29213, read-out: Minimum inhibitory concentration, SA
From the text: as §1, §3

[12] = tested on: Bacillus subtilis ATCC 6633; test: MIC, two-fold serial dilution, B. subtilis; format: cell-based; conditions: ATCC6633, read-out: Minimum inhibitory concentration, BS
From the text: as §1, §3

[13] = tested on: Bacillus megaterium ATCC 9885; test: MIC, two-fold serial dilution, B. megaterium; format: cell-based; conditions: Priestia megaterium, ATCC9885, read-out: Minimum inhibitory concentration, BM
From the text: as §1, §3

[14] = tested on: Escherichia coli ATCC 2592; test: MIC, two-fold serial dilution, E. coli; format: cell-based; conditions: ATCC2592, read-out: Minimum inhibitory concentration, EC
From the text: as §1, §3

[15] = tested on: Pseudomonas aeruginosa ATCC 27,953; test: MIC, two-fold serial dilution, P. aeruginosa; format: cell-based; conditions: ATCC27, read-out: Minimum inhibitory concentration, PA
From the text: as §1, §3

[16] = well diffusion, 100 μL of 10 mg/mL in DMSO, S. cerevisiae

SMILES	IC50 [1]	zone of inhibition at 10000 µg/mL [2] [mm]	zone of inhibition at 10000 µg/mL [3] [mm]	zone of inhibition at 10000 µg/mL [4] [mm]	zone of inhibition at 10000 µg/mL [5] [mm]	zone of inhibition at 10000 µg/mL [6] [mm]	zone of inhibition at 10000 µg/mL [7] [mm]	zone of inhibition at 10000 µg/mL [8] [mm]	MIC [9] [µg/mL]	MIC [10] [µg/mL]	% Inhibition (proteinase) (trypsin) [%]	IC50 (COX-1) [µM]	IC50 (COX-2) [µM]	SI, selectivity index (COX-1/COX-2) (COX-2)	melting point [°C]	MIC [11] [µg/mL]	zone of inhibition at 10000 µg/mL [7, 16] [mm]	MIC [12] [µg/mL]	MIC [13] [µg/mL]	further results
Cc1ccc2oc(=O)c3c(c2c1)OC(N)=C(C(N)=O)C3c1ccco1 (racemic) [3b, (±)-2-Amino-4-(furan-2-yl)-9-methyl-5-oxo-4H,5H-pyrano[3,2-c]chromene-3-carboxamide]	48.38 ± 4.616 µg/mL (≈ 143 µM)	16	< 15	< 15	16	16	17	18	1000 (≈ 2960 µM)	1000 (≈ 2960 µM)	49.28 ± 10.93	7.73	2.45	3.16	202 to 204	–	–	–	–	–
COc1cc(/C=N/C2=C(C#N)C(c3ccco3)c3c(c4cc(C)ccc4oc3=O)O2)cc(OC)c1OC (racemic) [5d, (±)-4-(furan-2-yl)-9-methyl-5-oxo-2-((3,4,5-trimethoxybenzylidene)amino)-4H,5H-pyrano[3,2-c]chromene-3-carbonitrile]	82.92 ± 3.300 µg/mL (≈ 166 µM)	18	< 15	< 15	< 15	< 15	19	19	1000 (≈ 2010 µM)	1000 (≈ 2010 µM)	43.4 ± 1.52	27.2	16	1.7	248 to 250	1000 (≈ 2010 µM)	–	–	–	–
Cc1ccc2oc(=O)c3c(c2c1)OC(/N=C/c1ccc(Cl)cc1Cl)=C(C#N)C3c1ccc([N+](=O)[O-])cc1 (racemic) [5e, (±)-2-((2,4-dichlorobenzylidene)amino)-9-methyl-4-(4-nitrophenyl)-5-oxo-4H,5H-pyrano[3,2-c]chromene-3-carbonitrile]	— ((—): inactive (IC50 > 200 μg/mL))	16	16	16	15	15	22	20	500 (≈ 939 µM)	500 (≈ 939 µM)	45.78 ± 1.62	20.8	8.27	2.52	236 to 238	–	–	–	–	–
O=C(/C=C/c1ccc([N+](=O)[O-])cc1)c1ccc(NS(=O)(=O)c2c(O)c3cc(Cl)ccc3oc2=O)cc1 [9a, (E)-6-Chloro-4-hydroxy-N-(4-(3-(4-nitrophenyl)acryloyl)phenyl)-2-oxo-2H-chromene-3-sulfonamide]	— ((—): inactive (IC50 > 200 μg/mL))	16	18	18	< 15	< 15	–	< 15	–	–	62.14 ± 4.87	–	–	–	205 to 207	–	< 15	1000 (≈ 1900 µM)	1000 (≈ 1900 µM)	–
O=C(O)c1cn(C2CC2)c2cc(N3CCNCC3)c(F)cc2c1=O [Ciprofloxacin, reference compound]	–	28	30	30	30	30	–	< 15	–	–	–	–	–	–	–	125 (≈ 377 µM)	< 15	125 (≈ 377 µM)	125 (≈ 377 µM)	MIC [14]: 125 µg/mL (≈ 377 µM); MIC [15]: 125 µg/mL (≈ 377 µM)
